Source: patent US12077503B2, “Substituted cyclic amides and their use as herbicides” (FMC CORPORATION, priority 2015, dated 2024)

Experiments:
Format in all cases: in vivo
[1] = system: barnyardgrass (Echinochloa crus-galli); experiment: Test G Pre-Emergence Protocol; conditions: Echinochloa crus-galli, pre-emergence, 312 h, evaluated after 13 days; for pest or weed control at 15.625 g/ha: 15.625 g ai/ha, read-out: Barnyard grass damage rating (100=total damage to plant; 0=no damage to plant); for pest or weed control at 62.5 g/ha: 62.5 g ai/ha, 100=total damage to plant, 0=no damage to plant, read-out: plant damage rating, Barnyardgrass; for pest or weed control at 250 g/ha: 250 g ai/ha, read-out: Barnyardgrass damage rating (100=total damage to plant; 0=no damage to plant)
How it was run: (§1)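 Scores are visual damage ratings from 0 (no damage) to 100 (total plant kill), taken 13 days after treatment. Compound was sprayed one day post-sowing at 15.625, 62.5 or 250 g/ha in 50:50 acetone/water with 0.5% Tween 20.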

corn (Zea mays) [2] = experiment: Test G Pre-Emergence Protocol; conditions: Zea mays, pre-emergence, 312 h, evaluated after 13 days; for plant injury at 15.625 g/ha: 15.625 g ai/ha; for plant injury at 15.625 g/ha / plant injury at 250 g/ha: read-out: Corn damage rating (100=total damage to plant; 0=no damage to plant); for plant injury at 62.5 g/ha: 62.5 g ai/ha, 100=total damage to plant, 0=no damage to plant, read-out: plant damage rating, Corn; for plant injury at 250 g/ha: 250 g ai/ha
How it was run: as §1

[3] = system: giant foxtail (Setaria faberi); experiment: Test G Pre-Emergence Protocol; conditions: Setaria faberi, pre-emergence, 312 h, evaluated after 13 days; for pest or weed control at 15.625 g/ha: 15.625 g ai/ha; for pest or weed control at 15.625 g/ha / pest or weed control at 250 g/ha: read-out: Foxtail, Giant damage rating (100=total damage to plant; 0=no damage to plant); for pest or weed control at 62.5 g/ha: 62.5 g ai/ha, 100=total damage to plant, 0=no damage to plant, read-out: plant damage rating, Foxtail, Giant; for pest or weed control at 250 g/ha: 250 g ai/ha
How it was run: as §1

[4] = system: ivy-leaved morning glory (Ipomoea hederacea); experiment: Test G Pre-Emergence Protocol; conditions: Ipomoea, pre-emergence, 312 h, evaluated after 13 days; for pest or weed control at 15.625 g/ha: 15.625 g ai/ha, read-out: Morning-glory, Ivy-leaved damage rating (100=total damage to plant; 0=no damage to plant); for pest or weed control at 62.5 g/ha: 62.5 g ai/ha, 100=total damage to plant, 0=no damage to plant, read-out: plant damage rating, Morningglory, Ivy-leaved; for pest or weed control at 250 g/ha: 250 g ai/ha, read-out: Morningglory, Ivy-leaved damage rating (100=total damage to plant; 0=no damage to plant)
How it was run: as §1

[5] = system: redroot pigweed (Amaranthus retroflexus); experiment: Test G Pre-Emergence Protocol; conditions: Amaranthus retroflexus, pre-emergence, 312 h, evaluated after 13 days; for pest or weed control at 15.625 g/ha: 15.625 g ai/ha; for pest or weed control at 15.625 g/ha / pest or weed control at 250 g/ha: read-out: Pigweed, Redroot damage rating (100=total damage to plant; 0=no damage to plant); for pest or weed control at 62.5 g/ha: 62.5 g ai/ha, 100=total damage to plant, 0=no damage to plant, read-out: plant damage rating, Pigweed, Redroot; for pest or weed control at 250 g/ha: 250 g ai/ha
How it was run: as §1

[6] = system: velvetleaf (Abutilon theophrasti); experiment: Test G Pre-Emergence Protocol; conditions: Abutilon theophrasti, pre-emergence, 312 h, evaluated after 13 days; for pest or weed control at 15.625 g/ha: 15.625 g ai/ha; for pest or weed control at 15.625 g/ha / pest or weed control at 250 g/ha: read-out: Velvetleaf damage rating (100=total damage to plant; 0=no damage to plant); for pest or weed control at 62.5 g/ha: 62.5 g ai/ha, 100=total damage to plant, 0=no damage to plant, read-out: plant damage rating, Velvetleaf; for pest or weed control at 250 g/ha: 250 g ai/ha
How it was run: as §1

[7] = system: barnyardgrass (Echinochloa crus-galli); experiment: Test G Post-Emergence Protocol; conditions: Echinochloa crus-galli, post-emergence, 312 h; for pest or weed control at 15.625 g/ha: 15.625 g ai/ha, evaluated after 13 days (100=total damage to plant; 0=no damage to plant), read-out: Barnyardgrass damage rating; for pest or weed control at 62.5 g/ha: 62.5 g ai/ha, read-out: Barnyardgrass damage rating (100=total damage to plant; 0=no damage to plant); for pest or weed control at 62.5 g/ha / pest or weed control at 250 g/ha: evaluated after 13 days; for pest or weed control at 250 g/ha: 250 g ai/ha, read-out: damage to plant, Barnyardgrass (100=total damage to plant; 0=no damage to plant)
How it was run: (§2)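 Damage was rated 13 days after treatment from 0 (none) to 100 (plant killed). Compound was applied as a spray at 15.625, 62.5 or 250 g/ha in 50:50 acetone/water containing 0.5% Tween 20, onto 8-day-old potted plants kept in a glasshouse (24/16 °C, 14 h light, 65% humidity).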

corn (Zea mays) [8] = experiment: Test G Post-Emergence Protocol; conditions: Zea mays, post-emergence, 312 h; for plant injury at 15.625 g/ha: 15.625 g ai/ha, evaluated after 13 days (100=total damage to plant; 0=no damage to plant), read-out: Corn damage rating; for plant injury at 62.5 g/ha: 62.5 g ai/ha, read-out: Corn damage rating (100=total damage to plant; 0=no damage to plant); for plant injury at 62.5 g/ha / plant injury at 250 g/ha: evaluated after 13 days; for plant injury at 250 g/ha: 250 g ai/ha, read-out: damage to plant, Corn (100=total damage to plant; 0=no damage to plant)
How it was run: as §2

[9] = system: giant foxtail (Setaria faberi); experiment: Test G Post-Emergence Protocol; conditions: Setaria faberi, post-emergence, 312 h; for pest or weed control at 15.625 g/ha: 15.625 g ai/ha, evaluated after 13 days (100=total damage to plant; 0=no damage to plant), read-out: Foxtail, Giant damage rating; for pest or weed control at 62.5 g/ha: 62.5 g ai/ha, read-out: Foxtail, Giant damage rating (100=total damage to plant; 0=no damage to plant); for pest or weed control at 62.5 g/ha / pest or weed control at 250 g/ha: evaluated after 13 days; for pest or weed control at 250 g/ha: 250 g ai/ha, read-out: damage to plant, Foxtail, Giant (100=total damage to plant; 0=no damage to plant)
How it was run: as §2

[10] = system: ivy-leaved morning glory (Ipomoea hederacea); experiment: Test G Post-Emergence Protocol; conditions: Ipomoea, post-emergence, 312 h; for pest or weed control at 15.625 g/ha: 15.625 g ai/ha, evaluated after 13 days (100=total damage to plant; 0=no damage to plant), read-out: Morningglory, Ivy-leaved damage rating; for pest or weed control at 62.5 g/ha: 62.5 g ai/ha, read-out: Morningglory, Ivy-leaved damage rating (100=total damage to plant; 0=no damage to plant); for pest or weed control at 62.5 g/ha / pest or weed control at 250 g/ha: evaluated after 13 days; for pest or weed control at 250 g/ha: 250 g ai/ha, read-out: damage to plant, Morningglory, Ivy-leaved (100=total damage to plant; 0=no damage to plant)
How it was run: as §2

[11] = system: redroot pigweed (Amaranthus retroflexus); experiment: Test G Post-Emergence Protocol; conditions: Amaranthus retroflexus, post-emergence, 312 h; for pest or weed control at 15.625 g/ha: 15.625 g ai/ha, evaluated after 13 days (100=total damage to plant; 0=no damage to plant), read-out: Pigweed, Redroot damage rating; for pest or weed control at 62.5 g/ha: 62.5 g ai/ha, read-out: Pigweed, Redroot damage rating (100=total damage to plant; 0=no damage to plant); for pest or weed control at 62.5 g/ha / pest or weed control at 250 g/ha: evaluated after 13 days; for pest or weed control at 250 g/ha: 250 g ai/ha, read-out: damage to plant, Pigweed, Redroot (100=total damage to plant; 0=no damage to plant)
How it was run: as §2

[12] = system: velvetleaf (Abutilon theophrasti); experiment: Test G Post-Emergence Protocol; conditions: Abutilon theophrasti, post-emergence, 312 h; for pest or weed control at 15.625 g/ha: 15.625 g ai/ha, evaluated after 13 days (100=total damage to plant; 0=no damage to plant), read-out: Velvetleaf damage rating; for pest or weed control at 62.5 g/ha: 62.5 g ai/ha, read-out: Velvetleaf damage rating (100=total damage to plant; 0=no damage to plant); for pest or weed control at 62.5 g/ha / pest or weed control at 250 g/ha: evaluated after 13 days; for pest or weed control at 250 g/ha: 250 g ai/ha, read-out: damage to plant, Velvetleaf (100=total damage to plant; 0=no damage to plant)
How it was run: as §2

Row | Compound | pest or weed control at 15.625 g/ha [1] | pest or weed control at 62.5 g/ha [1] | pest or weed control at 250 g/ha [1] | plant injury at 15.625 g/ha (corn (Zea mays) [2]) | plant injury at 62.5 g/ha (corn (Zea mays) [2]) | plant injury at 250 g/ha (corn (Zea mays) [2]) | pest or weed control at 15.625 g/ha [3] | pest or weed control at 62.5 g/ha [3] | pest or weed control at 250 g/ha [3] | pest or weed control at 15.625 g/ha [4] | pest or weed control at 250 g/ha [4] | pest or weed control at 15.625 g/ha [5] | pest or weed control at 62.5 g/ha [5] | pest or weed control at 250 g/ha [5] | pest or weed control at 15.625 g/ha [6] | pest or weed control at 62.5 g/ha [6] | pest or weed control at 250 g/ha [6] | pest or weed control at 15.625 g/ha [7] | pest or weed control at 62.5 g/ha [7] | pest or weed control at 250 g/ha [7] | further results
1 | CN1C[C@H](c2ccc(C(F)(F)F)cc2)[C@@H](C(=O)Nc2ccccc2C(C)(C)C)C1=O (racemic) [Compound 1445] | 0% | 0% | 0% | 0% | 0% | 0% | 0% | 0% | 0% | 0% | 0% | 0% | 0% | 0% | 0% | 0% | 0% | 0% | 0% | 0% | pest or weed control at 62.5 g/ha [4]: 0%; plant injury at 15.625 g/ha (corn (Zea mays) [8]): 0%; plant injury at 62.5 g/ha (corn (Zea mays) [8]): 0%; plant injury at 250 g/ha (corn (Zea mays) [8]): 0%; pest or weed control at 15.625 g/ha [9]: 0%; pest or weed control at 62.5 g/ha [9]: 0%; pest or weed control at 250 g/ha [9]: 0%; pest or weed control at 15.625 g/ha [10]: 0%; pest or weed control at 62.5 g/ha [10]: 0%; pest or weed control at 250 g/ha [10]: 0%; pest or weed control at 15.625 g/ha [11]: 0%; pest or weed control at 62.5 g/ha [11]: 0%; pest or weed control at 250 g/ha [11]: 0%; pest or weed control at 15.625 g/ha [12]: 0%; pest or weed control at 62.5 g/ha [12]: 0%; pest or weed control at 250 g/ha [12]: 0%
2 | CN1C[C@H](c2ccc(C(F)(F)F)cc2)[C@@H](C(=O)Nc2ccc(F)cn2)C1=O (racemic) [Compound 1450] | 10% | 30% | 70% | 0% | 0% | 0% | 40% | 70% | 90% | 0% | 0% | 0% | 0% | 80% | 0% | 0% | 0% | 0% | 10% | 20% | pest or weed control at 62.5 g/ha [4]: 0%; plant injury at 15.625 g/ha (corn (Zea mays) [8]): 0%; plant injury at 62.5 g/ha (corn (Zea mays) [8]): 10%; plant injury at 250 g/ha (corn (Zea mays) [8]): 10%; pest or weed control at 15.625 g/ha [9]: 0%; pest or weed control at 62.5 g/ha [9]: 30%; pest or weed control at 250 g/ha [9]: 60%; pest or weed control at 15.625 g/ha [10]: 0%; pest or weed control at 62.5 g/ha [10]: 10%; pest or weed control at 250 g/ha [10]: 20%; pest or weed control at 15.625 g/ha [11]: 0%; pest or weed control at 62.5 g/ha [11]: 0%; pest or weed control at 250 g/ha [11]: 30%; pest or weed control at 15.625 g/ha [12]: 0%; pest or weed control at 62.5 g/ha [12]: 0%; pest or weed control at 250 g/ha [12]: 0%
3 | CN1C[C@H](c2ccc(F)c(OCC(F)(F)F)c2)[C@@H](C(=O)Nc2ccccc2F)C1=O (racemic) [Compound 1456] | 20% | 60% | 80% | 0% | 0% | 40% | 60% | 80% | 90% | 0% | 40% | 0% | 0% | 90% | 0% | 0% | 40% | 10% | 10% | 20% | plant injury at 15.625 g/ha (corn (Zea mays) [8]): 10%; plant injury at 62.5 g/ha (corn (Zea mays) [8]): 20%; plant injury at 250 g/ha (corn (Zea mays) [8]): 60%; pest or weed control at 15.625 g/ha [9]: 50%; pest or weed control at 62.5 g/ha [9]: 60%; pest or weed control at 250 g/ha [9]: 70%; pest or weed control at 15.625 g/ha [10]: 30%; pest or weed control at 62.5 g/ha [10]: 30%; pest or weed control at 250 g/ha [10]: 20%; pest or weed control at 15.625 g/ha [11]: 0%; pest or weed control at 62.5 g/ha [11]: 30%; pest or weed control at 250 g/ha [11]: 40%; pest or weed control at 15.625 g/ha [12]: 0%; pest or weed control at 62.5 g/ha [12]: 20%; pest or weed control at 250 g/ha [12]: 20%
